Measurements from publication PMC3818959 (Journal of Ginseng Research, 2013).

Target: KCNQ1 (IKs channel, KCNQ1 + KCNE1) (Homo sapiens, UniProt P51787)
Experiment: cell-based

Sequence of KCNQ1 (IKs channel, KCNQ1 + KCNE1) (P51787 whole entry): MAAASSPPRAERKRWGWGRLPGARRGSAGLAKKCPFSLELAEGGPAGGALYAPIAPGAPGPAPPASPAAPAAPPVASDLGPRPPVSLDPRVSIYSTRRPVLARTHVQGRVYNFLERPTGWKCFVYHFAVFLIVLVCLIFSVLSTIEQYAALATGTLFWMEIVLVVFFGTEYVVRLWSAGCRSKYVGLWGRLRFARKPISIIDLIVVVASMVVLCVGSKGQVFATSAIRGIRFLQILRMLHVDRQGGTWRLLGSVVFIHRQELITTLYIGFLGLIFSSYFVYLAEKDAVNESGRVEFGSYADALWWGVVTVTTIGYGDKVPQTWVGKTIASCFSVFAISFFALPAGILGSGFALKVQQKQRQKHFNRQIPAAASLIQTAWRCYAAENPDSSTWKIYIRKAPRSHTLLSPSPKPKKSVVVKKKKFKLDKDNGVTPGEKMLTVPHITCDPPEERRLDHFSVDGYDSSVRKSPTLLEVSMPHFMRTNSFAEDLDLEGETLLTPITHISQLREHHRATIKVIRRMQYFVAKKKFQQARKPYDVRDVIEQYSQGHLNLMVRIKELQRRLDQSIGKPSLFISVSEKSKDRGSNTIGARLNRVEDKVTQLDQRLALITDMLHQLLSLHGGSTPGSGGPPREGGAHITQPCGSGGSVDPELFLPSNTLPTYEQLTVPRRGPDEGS

Compound `CC(C)=CCC[C@](C)(O)[C@H]1CC[C@]2(C)[C@@H]1[C@H](O)C[C@@H]1[C@@]3(C)CC[C@H](O)C(C)(C)[C@@H]3[C@@H](O)C[C@]12C` [PPT, protopanaxatriol] has an IC50 of 5.18 ± 0.13 µM.
